Experimental data from patent US11584733B2, “Selective histone deacetylase inhibitors for the treatment of human disease” (Shuttle Pharmaceuticals, Inc., priority 2017, dated 2023).

Columns and labels:
[1] = tested on: MCF-7 breast cancer cells; assay: Cell Proliferation and Cytotoxicity Assay (CCK-8); type: cell-based; details: FIG. 15
Source text: Cell Counting Kit-8 (CCK-8) (Dojindo) was used to determine the cytotoxicity of cells. CCK-8 assay kit uses a water-soluble WST-8 tetrazolium salt. This tetrazolium salt produces a water-soluble formazan dye upon reduction in the presence of an electron mediator (dehydrogenase). When WST-8 is reduced by dehydrogenases in living cells an orange colored product (formazan) is produced that can be detected in a 96-well plate format. The amount of the formazan dye generated by dehydrogenases is directly proportional to the number of living cells.
For this assay the following materials were required:
1. Plate reader (450 nm filter);
5. Tissue Culture Media; and
6. Actively growing cells (75-80% confluency).
The following dilutions with cell media were made prior to performance of an assay: Test compound solutions were made in a range from nano-molar to micro-molar with a final DMSO concentration not exceeding 0.1% and a total volume (e.g., 300 ul) necessary to perform duplicates of 100 μl doses.
A Cell Proliferation and Cytotoxicity Assay was performed as follows:
1. Dispense 100 μl of cell suspension (5000 cells/well) in a 96-well plate equal to the number of treatments plus controls done in duplicate;
2. Allow seeded cells to plate for 24 hours in a humidified incubator (at 37° C., 5% CO2);
3. […]
7. Measure the absorbance at 450 nm using a micro-plate reader; and […]

[2] = target: Human recombinant HDAC1 (Homo sapiens, UniProt Q13547); assay: HDAC isomer assay, Fluor-de-Lys, HDAC1; type: biochemical
Experimental: (§1) The HDAC isomer (HDAC1, 3, and 6) assays were performed as follows:
(§2) Materials: Human recombinant HDAC isomer (HDAC1, HDAC3, and HDAC6); Fluor-de-Lys HDAC substrates; 360 nm excitation 460 nm emission Plate Reader; Disposable pipettes; Pipet-aid; Pipette tips; Micro-pipetter; DMSO; Sterile micro-tubes and conical tubes; and Micro-centrifuge.
(§3) Test compounds and control preparation: All test compounds' stock solutions were made in 100% DMSO. Test compound dilutions were made in HDAC Assay buffer with a final concentration of DMSO less than or equal to 1%. Vehicle control was HDAC Assay buffer with 1% DMSO.
(§4) The reagents for the assay were prepared as follows:
(§5) 1. All kit components were defrosted and these, and all dilutions described below, were kept on ice until use. All undiluted kit components are stable for several hours on ice.
(§6) 2. A sufficient amount of HDAC source diluted in Assay Buffer (BML-KI143) was prepared to provide for the assays that were performed (# of wells×15 μl). A 30-fold dilution of the HeLa Extract means that 15p L contains 0.5 μl of the undiluted Extract, an appropriate amount to use per well.
(§7) 3. Dilution(s) of SAHA and/or Test Inhibitors were prepared in Assay Buffer (BML-KI143). […]
(§8) 6. Samples were read in a microtiter-plate reading fluorimeter capable of excitation at a wavelength in the range 350-380 nm and detection of emitted light in the range 440-460 nm.

[3] = target: Human recombinant HDAC3 (Homo sapiens, UniProt O15379); assay: HDAC isomer assay, Fluor-de-Lys, HDAC3; type: biochemical
Experimental: as §1, §2, §3, §4, §5, §6, §7, §8

Sequence of Human recombinant HDAC1 (Q13547 whole entry): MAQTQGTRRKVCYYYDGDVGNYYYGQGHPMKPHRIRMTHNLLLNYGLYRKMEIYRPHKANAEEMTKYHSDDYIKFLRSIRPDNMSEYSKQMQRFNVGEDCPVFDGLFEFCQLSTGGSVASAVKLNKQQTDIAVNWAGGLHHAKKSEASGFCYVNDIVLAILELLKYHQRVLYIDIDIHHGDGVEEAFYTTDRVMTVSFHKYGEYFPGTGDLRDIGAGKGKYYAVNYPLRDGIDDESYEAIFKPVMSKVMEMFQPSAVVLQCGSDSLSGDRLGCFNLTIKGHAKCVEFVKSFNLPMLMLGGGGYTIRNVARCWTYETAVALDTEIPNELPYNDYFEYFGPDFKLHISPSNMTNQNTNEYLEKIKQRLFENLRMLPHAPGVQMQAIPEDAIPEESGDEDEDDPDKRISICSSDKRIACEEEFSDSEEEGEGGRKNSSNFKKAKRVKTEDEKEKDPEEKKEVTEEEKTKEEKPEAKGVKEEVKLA
Sequence of Human recombinant HDAC3 (O15379 whole entry): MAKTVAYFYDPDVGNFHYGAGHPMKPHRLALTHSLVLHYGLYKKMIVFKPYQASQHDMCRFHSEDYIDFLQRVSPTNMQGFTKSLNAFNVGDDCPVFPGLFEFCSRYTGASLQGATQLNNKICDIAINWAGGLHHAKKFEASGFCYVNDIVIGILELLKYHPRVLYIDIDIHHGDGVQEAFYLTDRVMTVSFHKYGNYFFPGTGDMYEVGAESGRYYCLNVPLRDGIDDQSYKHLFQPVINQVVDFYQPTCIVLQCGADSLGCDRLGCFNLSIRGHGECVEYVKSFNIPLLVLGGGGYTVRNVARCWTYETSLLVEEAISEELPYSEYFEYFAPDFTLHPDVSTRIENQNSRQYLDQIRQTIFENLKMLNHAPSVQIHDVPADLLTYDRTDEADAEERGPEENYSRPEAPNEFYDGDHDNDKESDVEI
Sequence of Human recombinant HDAC3 (Q9Y618 395-489 partner limits assumed): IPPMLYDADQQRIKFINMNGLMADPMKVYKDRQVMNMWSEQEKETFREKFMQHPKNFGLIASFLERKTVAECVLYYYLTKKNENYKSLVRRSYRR

| SMILES | EC50 ([1]; Homo sapiens, MCF7, 48 hours incubation, read-out: EC50 against MCF-7 breast cancer cells) | MCF-7 cells killed ([1]; at about 10 μM) | EC50 ([2]; Example 4, FIG. 9) | IC50 ([2]; Example 6, FIG. 18, 2 mg/mL formulation in 5% DMSO/40% PEG 400/55% PBS, read-out: IC50 against HDAC1 protein) | EC50 ([3]; Example 4, FIG. 10) | IC50 ([3]; Example 6, FIG. 18, 2 mg/mL formulation in 5% DMSO/40% PEG 400/55% PBS, read-out: IC50 against HDAC3 protein) |
| --- | --- | --- | --- | --- | --- | --- |
| O=C(CCCCCCC(=O)NC1CCC(=O)NC1=O)NO (stereo not drawn) [SP-2-59, N^1-(2,6-dioxopiperidin-3-yl)-N^8-hydroxyoctanediamide] | 5.03 µM | 78% |  |  |  |  |
| O=C(CCCCCCC(=O)Nc1cccc2c1CN(C1CCC(=O)NC1=O)C2=O)NO (stereo not drawn) [SP-2-93, N^1-(2-(2,6-dioxopiperidin-3-yl)-1-oxoisoindolin-4-yl)-N^8-hydroxyoctanediamide] |  |  | 1.54 µM | 1.54 µM | 3.07 µM | 3.07 µM |
